Experiment [1] relates to Staphylococcus aureus. The experiment is described as follows: Inhibition of Staphylococcus aureus MetRS assessed as decrease in […] incorporation at 100 uM by SPA.
The nature of experiment [2]: Inhibition of Staphylococcus aureus MetRS assessed as decrease in […] incorporation by SPA.
Experiment [3] concerns Staphylococcus aureus. Kind of experiment: Inhibition of Staphylococcus aureus MetRS assessed as decrease in […] incorporation at 40 uM by SPA.

SMILES strings stand for the structures.

The term inhibition denotes the percentage by which the read-out fell short of the control. By IC50 is commonly meant the midpoint of a concentration-inhibition curve.

`O=C(Nc1ccccc1C(=O)N/N=C/c1ccccc1O)c1ccc(Cl)cc1`: in experiment [1], the inhibition came out at 77%. The IC50 in experiment [2] was determined as 23.6 µM.

Take `O=C(N/N=C/c1ccc(O)cc1O)c1cc(-c2ccccc2)nc2ccccc12`: in experiment [1], the inhibition turned out to be 87%. In addition, the IC50 in experiment [2] came to 46.5 µM.

`O=C(NC(C(=O)N/N=C/c1ccccc1O)c1n[nH]c(=O)c2ccccc12)c1ccccc1` (configuration not stated): in experiment [1], the inhibition amounted to 52%. The IC50 in experiment [2] stood at 35.6 µM.

`COc1ccc(O)c(/C=N/NC(=O)CCC(=O)Nc2ccc(Br)cc2)c1`: the inhibition in experiment [1] amounted to 72%. Moreover, the IC50 in experiment [2] worked out at 41.7 µM.

Regarding `Cc1cccc(C(=O)Nc2nnc(CC(=O)N/N=C/c3ccc(O)cc3O)s2)c1`, the inhibition in experiment [1] was determined as 84%. In addition, the concentration for half-maximal inhibition (IC50) in experiment [2] worked out at 46.3 µM.

For the molecule `O=C(CSc1ccc2ccccc2n1)N/N=C/c1ccccc1O`, the inhibition in experiment [1] came to 47%.

Regarding `Nc1nn(CCO)c2cc(-c3ccc(Cl)cc3Cl)ccc12`, the IC50 in experiment [2] came to 0.57 µM.

For the molecule `O=C(/N=N/c1nc(Nc2ccccc2)nc(N2CCOCC2)n1)Nc1ccc(Cl)cc1`, the inhibition in experiment [1] was 81%; in experiment [3] it was 34%.

In the case of `Cc1cc(Cl)ccc1NC(=O)CCC(=O)N/N=C/c1ccccc1O`, the inhibition in experiment [1] stood at 91%. Also, the IC50 in experiment [2] came to 94.9 µM.

For the molecule `O=C(Nc1ccccc1O)c1cc(C(=O)Nc2ccccc2O)cc(N2C(=O)c3ccccc3C2=O)c1`, the inhibition in experiment [1] worked out at 92%. Besides, in experiment [2], the IC50 was determined as 11.5 µM.

As for `O=C(CSc1nc2ccccc2n1Cc1ccccc1)N/N=C/c1ccccc1O`, the inhibition came to 76% in experiment [1] and 52% in experiment [3].

With `S=C(Nc1ccccc1)Nc1nc2ccccc2n1CCOc1ccccc1Cl`, the inhibition in experiment [1] came to 66%. The IC50 in experiment [2] is 25.3 µM.

On to `O=C(Nc1cccc(O)c1)c1cnn2c1NC(c1ccc(Br)cc1)CC2C(F)(F)F` (configuration not stated), for which the inhibition in experiment [1] was found to be 55%. Moreover, in experiment [2], the IC50 was found to be 8.3 µM.

Take `S=C(Nc1ccccc1)Nc1nc2ccccc2n1CCOc1ccc(Cl)cc1`: the inhibition in experiment [1] was determined as 67%. Also, in experiment [2], the IC50 was determined as 86.8 µM.

As to `O=C(CCCOc1ccc(Cl)cc1Cl)N/N=C/c1ccccc1O`, the inhibition in experiment [1] turned out to be 86%. The IC50 in experiment [2] turned out to be 4.8 µM.

Take `O=C(Nc1cccc(O)c1)c1cnn2c1NC(c1cccs1)CC2C(F)(F)F` (configuration not stated): the inhibition in experiment [1] was determined as 83%. In experiment [2], the IC50 was 5.7 µM.

As for `Clc1ccc(-c2ccc(-c3cc(-c4nnn[nH]4)nn3-c3cccnc3)cc2)c(Cl)c1`, in experiment [2], the IC50 amounted to 0.13 µM.

Regarding `O=C(Cn1nnc(-c2ccccc2)n1)N/N=C/c1ccc(O)cc1O`, in experiment [1], the inhibition was determined as 45%.

As to `O=C(CNC(=O)c1ccc(Cl)cc1)N/N=C/c1c(O)ccc2ccccc12`, the inhibition in experiment [1] is 80%. In addition, in experiment [2], the IC50 is 26.6 µM.

Regarding `O=c1cc(NCCCNC2CCOc3c(Br)cc(Br)cc32)[nH]c2ccccc12` (configuration not stated), the IC50 in experiment [2] was found to be 0.008 µM.

As to `COc1ccc(O)c(/C=N/NC(=O)CNC(=O)c2ccc(Cl)cc2)c1`, the inhibition was 91% in experiment [1] and 35% in experiment [3].

For `O=C(NCc1nc2ccccc2[nH]1)[C@@H]1CC(O)CN1Cc1ccc(Cl)cc1Cl` (some centres not stated), the IC50 in experiment [2] came to 0.21 µM.

Take `O=C(O)c1ccc(OCc2ccc(Cl)cc2Cl)c(OCc2nc3ccccc3[nH]2)c1`: the IC50 in experiment [2] came out at 0.02 µM.

Consider `O=C(Nc1cccc(Cl)c1)Nc1sc2c(c1-c1nc3ccccc3s1)CCCC2`, for which, in experiment [1], the inhibition was found to be 80%. Besides, the IC50 in experiment [2] worked out at 6.3 µM.

`O=C(Nc1cc(Cl)ccc1O)c1cnn2c1NC(c1ccc(Br)cc1)CC2C(F)(F)F` (configuration not stated): in experiment [1], the inhibition turned out to be 47%.

In the case of `O=C(CSc1nc2ccccc2n1Cc1ccc(Cl)cc1)N/N=C/c1ccccc1O`, in experiment [1], the inhibition amounted to 82%. The 50% inhibitory concentration (IC50) in experiment [2] stood at 56 µM.

On to `NC(=O)[C@H](Cc1ccc(O)cc1)NC(=O)[C@@H]1CCN1/C=C1\N=C(c2ccc(Cl)cc2Cl)OC1=O`, for which, in experiment [2], the IC50 amounted to 0.07 µM.

Regarding `Cc1ccc(S(=O)(=O)N2CCC(C(=O)N/N=C/c3ccccc3O)CC2)cc1`, the inhibition in experiment [1] was 61%. Also, the IC50 in experiment [2] turned out to be 40.8 µM.

Values taken from ChEMBL document CHEMBL1155119, “Identification of novel inhibitors of methionyl-tRNA synthetase (MetRS) by virtual screening” (Bioorg Med Chem Lett, 2008).
